“Also recorded” adds a separate entry of the source.

These results are taken from article PMC5665643, “CHIP as a membrane-shuttling proteostasis sensor” (eLife, 2017).

Assay [1] relates to EGFP-CHIP in murine embryonic fibroblasts. In words: EGFP-CHIP relocalization to membranes in murine embryonic fibroblasts (fluorescence microscopy). In kind it is cell-based. The following applies: N = 3; for EGFP-CHIP relocalization to the plasma membrane: 20 μM inhibitor for 4 hr, 37°C, serum-free medium, without fixation, EGFP as control, ***p<0.001, chi-square.
The subject of assay [2] is EGFP-CHIP-K30A in murine embryonic fibroblasts. As to the kind of experiment: Release of EGFP-CHIP-K30A from cellular membranes (PLD inhibitors). To be noted: 12 hr inhibitor treatment in serum-free DMEM, without fixation; *p<0.05 (chi-square); N = 4. In kind it is cell-based.
Assay [3] concerns CHIP. As to the kind of experiment: Lipid-binding assay (membrane-immobilized lipids, lipid arrays). To be noted: for CHIP binding to phospholipid on lipid array: lipid strips/PIP strips, 0.5 µg/ml wild-type chaperone-free CHIP, 1 hr at RT, anti-C-CHIP antibody. More on the design: species or system Human. How it is done: (§1) Human recombinant full length CHIP and its truncated versions were purified from Escherichia coli BL21 cells using Glutathion Sepharose 4B (GE Healthcare). Sepharose-bound GST-CHIP was subjected to overnight treatment with PreScission protease and the released tag-free protein was collected. Size exclusion chromatography on a HiLoad Superdex 200 column (GE Healthcare) followed to ensure the purity and homogeneity of proteins. All CHIP variants were kept in HSP70 buffer (25 mM HEPES KOH pH 7.5, 150 mM KCl, 5 mM MgCl2, 5% glycerol, 1 mM DTT).
Membrane-immobilized lipids (Membrane lipid strips P-6002 and PIP strips P-6001) were purchased from Echelon Research Laboratories. The strips were incubated with blocking buffer (3% fatty acid free BSA, 0.1% (v/v) Tween-20 in PBS pH 7.5) for 1 hr at RT. 0.5 µg/ml of purified wild-type or mutant CHIP was added in blocking buffer and incubated for 1 hr at RT. Strips were washed and bound proteins were detected using anti-C-CHIP antibody. For competition experiments, ten times molar excess of C-terminal HSP70 was added to CHIP in blocking buffer.

Assay [4] relates to CHIP. In words: Liposome pelleting assay, effect of lipids and HSP70-C on CHIP association. In kind it is binding, Human. Here is the method: as §1
Human C-terminal HSP70 6xHis-tagged N-terminally was purified from Escherichia coli BL21 cells using 1 ml HisTrap column (GE Healthcare). Bound protein was eluted by applying an imidazole gradient. Fractions containing the protein were subjected to size exclusion chromatography using HiLoad Superdex 200 in HSP70 buffer. His-NQO1, His-UbcH5a, His-Uev1a and His-Ubc13 were purified similarly except that PBS/1 mM DTT was used during size exclusion chromatography. Purity of recombinant protein was evaluated by SDS-PAGE and Coomassie BB G-250 (CBB) staining. Concentration of proteins was determined measuring absorbance at 280 nm and using ProtParam (ExPASy) to calculate respective extinction coefficients. Proteins were aliquoted, snap-frozen and stored at −80°C.
Liposomes were prepared by mixing 1,2-dioleoyl-sn-glycero-3-phosphocholine (DOPC) with indicated amount (wt/wt) of either 1,2-dipalmitoyl-sn-glycero-3-phosphate (phosphatidic acid) or (wt/wt) 1,2-dipalmitoyl-sn-glycero-3-phosphoinositol-4-phosphate (PI4P) in a 1.5 ml reaction tube (Eppendorf). Lipid mixtures were dried under a nitrogen stream and kept for 1 hr under vacuum. Liposomes were rehydrated in 1 ml filtered reconstitution buffer (25 mM HEPES KOH pH 7.5, 50 mM NaCl) to a concentration of 10 mM lipids. Liposomes were reconstituted by shaking at 2000 rpm for 1 hr at 50°C, followed by sonication for 1 hr at 50°C in a water bath. The liposome suspension was subjected to five freeze-thaw cycles in liquid nitrogen to promote unilamellar vesicle formation, aliquoted in 200 µl and pulse-sonicated for 8 s at 45% output with MS72 sonotrode (Bandelin) to create a population of homogenously sized liposomes as determined using NanoSight (Malvern Instruments). Sonicated liposomes were pooled, aliquoted again, snap-frozen and stored at −80°C.
2 mM liposomes were mixed with 2 µM recombinant protein in 50 µl reconstitution buffer. The suspension was incubated shaking at 450 rpm for 30 min at 37°C. Liposomes with bound protein were sedimented by ultracentrifugation at 100,000 g for 30 min at 25°C. Liposome pellet was washed with 50 µl of reconstitution buffer and sedimented again at 100,000 g for 30 min at 25°C. The pellet was resuspended in 10 µl reconstitution buffer, resolved by SDS-PAGE and analyzed by CBB staining. Images were acquired with ChemiDoc MP imaging system and quantified using Image Lab 5.0 software (both from Bio-Rad Laboratories). For competition assays, indicated amounts of C-terminal HSP70 were preincubated with 2 µM CHIP for 20 min at 37°C prior to co-sedimentation.

Assay [5] addresses C-terminal Hsp70-interacting protein (CHIP), human recombinant full length, wild type, tag-free (human) (UniProt Q9UNE7).
Assay [6] in a line: Liposome pelleting assay, binding of CHIP and truncated variants to liposomes. The following applies: N = 3. The source says:
For mammalian expression of EGFP, the expression vector pEGFP-N1 from Clontech (Mountain View, CA) was used. N-terminal EGFP-CHIP fusion protein was constructed by cloning human CHIP coding sequence in pEGFP-C2 vector (Clontech) using HindIII and BamHI restriction sites. A fusion between the N-terminalβ−1,4-galactosyltransferase1 and EGFP was used as a marker of the Golgi apparatus, farnesylated EGFP as a marker of plasma membrane (both constructs from Clontech). Untagged and 3xFLAG-tagged human CHIP for mammalian expression were constructed in pCMV-10 vector (Sigma-Aldrich). HSP70 was amplified from human cDNA and cloned into pcDNA3. 1 expression vector without a tag. HSP70 lacking the last amino acid (HSP70ΔD) was prepared by site-directed mutagenesis. Vectors of full-length CHIP, UbcH5a and mutant NQO1 for bacterial expression were prepared as described ([Martínez-Limón et al., 2016]). The TPR domain bacterial expression vector (TPR) was created by exchanging glutamate152 codon to a stop codon in the full-length CHIP vector. CHIP without TPR domain (ΔTPR) was cloned by deleting the sequence between serine25 and argininge130 by means of PCR. […]
Liposomes were prepared by mixing 1,2-dioleoyl-sn-glycero-3-phosphocholine (DOPC) with indicated amount (wt/wt) of either 1,2-dipalmitoyl-sn-glycero-3-phosphate (phosphatidic acid) or (wt/wt) 1,2-dipalmitoyl-sn-glycero-3-phosphoinositol-4-phosphate (PI4P) in a 1.5 ml reaction tube (Eppendorf). […] The liposome suspension was subjected to five freeze-thaw cycles in liquid nitrogen to promote unilamellar vesicle formation, aliquoted in 200 µl and pulse-sonicated for 8 s at 45% output with MS72 sonotrode (Bandelin) to create a population of homogenously sized liposomes as determined using NanoSight (Malvern Instruments). […]
2 mM liposomes were mixed with 2 µM recombinant protein in 50 µl reconstitution buffer. […] The pellet was resuspended in 10 µl reconstitution buffer, resolved by SDS-PAGE and analyzed by CBB staining. Images were acquired with ChemiDoc MP imaging system and quantified using Image Lab 5.0 software (both from Bio-Rad Laboratories). […]

The target of assay [7] is T1, C-terminal Hsp70-interacting protein (CHIP), human recombinant full length, wild type, tag-free (human, UniProt Q9UNE7 1-303).
T1 construct: also called WT; wild-type CHIP; source: E. coli BL21, purified (Glutathion Sepharose 4B, PreScission protease, SEC on Superdex 200)
T1 sequence (looked up): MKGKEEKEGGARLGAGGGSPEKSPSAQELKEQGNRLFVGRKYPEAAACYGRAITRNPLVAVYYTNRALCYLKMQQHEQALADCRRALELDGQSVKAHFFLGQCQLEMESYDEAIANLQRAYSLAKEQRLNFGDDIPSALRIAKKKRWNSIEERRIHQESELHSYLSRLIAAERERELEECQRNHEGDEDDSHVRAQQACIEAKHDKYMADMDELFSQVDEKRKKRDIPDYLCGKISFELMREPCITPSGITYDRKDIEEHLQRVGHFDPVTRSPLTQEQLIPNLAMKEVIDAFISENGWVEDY
In words: ITC; 10 µM protein in the cell, 200 µM GPTIEEVD peptide in the syringe, 25 injections of 8 µl every 3 min, 37°C, HSP70 buffer (25 mM HEPES KOH pH 7.5, 150 mM KCl, 5 mM MgCl2, 5% glycerol, 1 mM DTT); independent binding model. The following applies: both partners purified.

With `C=CCNC1=C2C[C@@H](C)C[C@H](OC)[C@H](O)[C@@H](C)/C=C(\C)[C@H](OC(N)=O)[C@@H](OC)/C=C\C=C(/C)C(=O)NC(=CC1=O)C2=O` [17-AAG, 17-(Allylamino)−17-demethoxygeldanamycin], the “EGFP-CHIP relocalization to the plasma membrane” value in assay [1] is recorded as “mimic the heat shock effect in regard to CHIP relocalization to membranes in murine fibroblasts; also recorded: leads to the appearance of EGFP-CHIP, but not of EGFP, at the plasma membrane”.

Consider `O=C(NCCN1CCC(n2c(=O)[nH]c3ccccc32)CC1)c1cc2cc(F)ccc2[nH]1` [FIPI], for which, in assay [2], the “release of EGFP-CHIP-K30A from membranes into the cytosol” value was “efficiently released chaperone-free CHIP into the cytosol”.

Regarding `CCCCCCCCCCCCCCCC(=O)OC[C@H](COP(=O)(O)O[C@H]1[C@H](O)[C@@H](O)[C@H](OP(=O)(O)O)[C@@H](O)[C@H]1O)OC(=O)CCCCCCCCCCCCCCC` [PI4P, 1,2-dipalmitoyl-sn-glycero-3-phosphoinositol-4-phosphate], the “CHIP binding to phospholipid on lipid array” value in assay [3] is listed as “especially PI4P”. For the same molecule, the “CHIP association with DOPC-liposomes (pelleting), 1% PI4P” value in assay [4] (1% PI4P, 2 mM liposomes, 2 µM CHIP, 30 min at 37°C, N = 3) is recorded as “weakly”. Further, in assay [4] (5% PI4P, 2 mM liposomes, 2 µM CHIP, 30 min at 37°C, ***p<0.001, N = 3), the “CHIP association with DOPC-liposomes (pelleting), 5% PI4P” value was “strongly enhanced association of liposomes with CHIP; also recorded: strongly enhance CHIP association with DOPC-liposomes”. On to `N#Cc1ccc(COC[C@H]2O[C@@H](n3c(NCc4ccc(Cl)c(Cl)c4)nc4c(N)ncnc43)[C@H](O)[C@@H]2O)cc1` [VER-155008], for which the “EGFP-CHIP relocalization to the plasma membrane” value in assay [1] is on record as “mimic the heat shock effect in regard to CHIP relocalization to membranes in murine fibroblasts; also recorded: leads to the appearance of EGFP-CHIP, but not of EGFP, at the plasma membrane”. As to `C[C@@H](CN1CCC(n2c(=O)[nH]c3cc(Cl)ccc32)CC1)NC(=O)c1ccc2ccccc2c1` [VU0155069], in assay [2], the “release of EGFP-CHIP-K30A from membranes into the cytosol” value is on record as “efficiently released chaperone-free CHIP into the cytosol”. Take `O[As](O)O` [arsenite]: the “CHIP relocalization to membranes” value in assay [1] is “does not induce CHIP relocalization to membranes in murine fibroblasts; also recorded: not induced by arsenite treatment”.

With “C-terminal domain of HSP70, 260 amino acids (HSP70-C) (from UniProt P0DMV8 382-641) (domain or fragment)”, the association of 2 µM CHIP with liposomes in the pelleting assay after preincubation with HSP70-C (1 µM, substoichiometric, to an equimolar amount), relative to the control without HSP70-C (% of the control) in assay [5] worked out at 30.

“HSP70-C: last 260 amino acids of human HSPA1A, C-terminal domain of HSP70”: the “CHIP binding to lipid arrays in the presence of HSP70-C” value in assay [3] (ten-fold molar excess HSP70-C, 0.5 µg/ml CHIP, RT) was “blocks interaction of CHIP with phospholipids; also recorded: complete loss of binding to phosphatidylinositol monophosphates and only residual interaction with phosphatidic acid”. Besides, the “inhibition of CHIP interaction with liposomes” value in assay [4] (1 μM HSP70-C (substoichiometric), preincubated with 2 µM CHIP 20 min at 37°C, N = 4) is on record as “efficiently prevented CHIP from interacting with liposomes”. Also, the “CHIP association with liposomes, % of control” value in assay [4] (equimolar HSP70-C, preincubated with 2 µM CHIP 20 min at 37°C, N = 4) was “ca. 30%”. Regarding “phosphatidylinositol-3,4,5-trisphosphate”, the “CHIP binding to phospholipid on lipid array” value in assay [3] is reported as “no binding to phosphatidylinositol-3,4,5-trisphosphate detected”.

B1: TPR domain: glutamate152 codon exchanged to a stop codon in full-length CHIP (protein, UniProt Q9UNE7 1-151, looked up, fragment)
chain: MKGKEEKEGGARLGAGGGSPEKSPSAQELKEQGNRLFVGRKYPEAAACYGRAITRNPLVAVYYTNRALCYLKMQQHEQALADCRRALELDGQSVKAHFFLGQCQLEMESYDEAIANLQRAYSLAKEQRLNFGDDIPSALRIAKKKRWNSIE
modifications: TPR domain
notes: glutamate152 codon exchanged to a stop codon in full-length CHIP
For the molecule B1, the “binding capacity versus full-length CHIP” value in assay [6] (5% PA-containing DOPC-liposomes) is “still surpassed the full-length CHIP in binding capacity”. Besides, the “binding efficiency relative to full-length protein” value in assay [6] (isolated TPR domain, 20% PA-containing liposomes, 2 µM protein) was “ca. 160%”.

B2: C-terminal HSP70 octapeptide GPTIEEVD (peptide)
peptide: GPTIEEVD
notes: last eight residues of HSP70 (HSPA1A); also called HSP70 peptide; HSP70 C-terminal peptide; source: synthetic peptide (custom-synthetized by GenScript)
As to B2, the Kd in assay [7] was found to be 5 µM.
